Measured values as given in article PMC9482650, “Quantitative fragmentomics allow affinity mapping of interactomes” (Nature Communications, 2022).
Ends that are not written are not given here.

Columns and labels:
Assay in all cases: Holdup assay
Assay type in all cases: binding
RADIL PDZ = RADIL PDZ (Homo sapiens, UniProt Q96JH8); settings: composite holdup affinity; 0.00=below quantification threshold; read-out: COMP pKd (converted)
CNKSR1 PDZ = CNKSR1 PDZ (Homo sapiens, UniProt Q969H4); settings: sheet PPI_convert; read-out: affinity to PDZ CNKSR1 (converted)
CNKSR1 PDZ, sequence (Q969H4 196-285 limits assumed): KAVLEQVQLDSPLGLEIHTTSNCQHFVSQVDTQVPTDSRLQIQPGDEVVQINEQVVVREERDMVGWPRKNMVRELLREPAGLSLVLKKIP
Source text: Supplement 41467_2022_33018_MOESM4_ESM.xlsx, sheet "PPI_convert" | column: CNKSR1

DVL2 PDZ = DVL2 PDZ (Homo sapiens, UniProt O14641); settings: sheet PPI_convert; read-out: affinity to PDZ DVL2 (converted)
DVL2 PDZ, sequence (O14641 267-339 limits assumed): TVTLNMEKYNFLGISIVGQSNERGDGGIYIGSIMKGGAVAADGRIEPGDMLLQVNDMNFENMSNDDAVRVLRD

PDZRN3_2 PDZ = PDZRN3_2 PDZ (Homo sapiens, UniProt Q9UPQ7); settings: sheet PPI_convert; read-out: affinity to PDZ PDZRN3_2 (converted)
PDZRN3_2 PDZ, sequence (Q9UPQ7 419-503 limits assumed): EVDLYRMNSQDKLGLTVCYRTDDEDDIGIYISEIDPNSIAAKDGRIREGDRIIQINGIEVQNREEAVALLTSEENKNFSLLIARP

SHANK1 PDZ = SHANK1 PDZ (Homo sapiens, UniProt Q9Y566); settings: composite holdup affinity; 0.00=below quantification threshold; read-out: COMP pKd (converted)
SHANK1 PDZ, sequence (Q9Y566 663-757 limits assumed): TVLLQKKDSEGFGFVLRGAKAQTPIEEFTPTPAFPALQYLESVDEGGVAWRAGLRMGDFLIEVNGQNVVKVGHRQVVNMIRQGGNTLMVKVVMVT

GRASP PDZ = GRASP PDZ (Homo sapiens, UniProt Q7Z6J2); settings: composite holdup affinity; 0.00=below quantification threshold; read-out: COMP pKd (converted)
GRASP PDZ, sequence (Q7Z6J2 101-190 limits assumed): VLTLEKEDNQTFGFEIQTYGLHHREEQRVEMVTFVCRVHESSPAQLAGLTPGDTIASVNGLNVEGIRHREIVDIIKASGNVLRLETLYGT

Inadl_8 PDZ = Inadl_8 PDZ (Homo sapiens, UniProt Q8NI35); settings: composite holdup affinity; 0.00=below quantification threshold; read-out: COMP pKd (converted)
Inadl_8 PDZ, sequence (Q8NI35 1437-1520 limits assumed): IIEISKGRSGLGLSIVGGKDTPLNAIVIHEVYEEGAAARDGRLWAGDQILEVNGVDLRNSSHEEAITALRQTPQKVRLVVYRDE

Inadl_3 PDZ = Inadl_3 PDZ (Homo sapiens, UniProt Q8NI35); settings: composite holdup affinity; 0.00=below quantification threshold; read-out: COMP pKd (converted)
Inadl_3 PDZ, sequence (Q8NI35 365-453 limits assumed): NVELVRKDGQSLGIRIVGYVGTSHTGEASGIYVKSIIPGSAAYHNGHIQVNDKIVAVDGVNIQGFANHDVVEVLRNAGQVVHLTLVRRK

LNX1_2 PDZ = LNX1_2 PDZ (Homo sapiens, UniProt Q8TBB1); settings: composite holdup affinity; 0.00=below quantification threshold; read-out: COMP pKd (converted)
LNX1_2 PDZ, sequence (Q8TBB1 381-464 limits assumed): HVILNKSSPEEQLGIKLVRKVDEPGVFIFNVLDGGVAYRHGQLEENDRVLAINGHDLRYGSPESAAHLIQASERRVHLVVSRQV

LIN7A PDZ = LIN7A PDZ (Homo sapiens, UniProt O14910); settings: composite holdup affinity; 0.00=below quantification threshold; read-out: COMP pKd (converted)
LIN7A PDZ, sequence (O14910 108-190 limits assumed): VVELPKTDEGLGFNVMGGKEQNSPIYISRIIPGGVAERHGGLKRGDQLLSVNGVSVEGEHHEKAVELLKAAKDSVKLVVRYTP

GRIP2_5 PDZ = GRIP2_5 PDZ (Homo sapiens, UniProt Q9C0E4); settings: composite holdup affinity; 0.00=below quantification threshold; read-out: COMP pKd (converted)
GRIP2_5 PDZ, sequence (Q9C0E4 557-641 limits assumed): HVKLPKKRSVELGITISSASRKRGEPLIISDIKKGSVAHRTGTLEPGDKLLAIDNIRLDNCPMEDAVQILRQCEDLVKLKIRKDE

GRIP2_4 PDZ = GRIP2_4 PDZ (Homo sapiens, UniProt Q9C0E4); settings: composite holdup affinity; 0.00=below quantification threshold; read-out: COMP pKd (converted)
GRIP2_4 PDZ, sequence (Q9C0E4 456-545 limits assumed): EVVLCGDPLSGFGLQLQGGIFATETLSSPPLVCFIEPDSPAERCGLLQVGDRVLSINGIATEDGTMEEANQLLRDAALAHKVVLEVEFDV

LIMK2 PDZ = LIMK2 PDZ (Homo sapiens, UniProt P53671); settings: composite holdup affinity; 0.00=below quantification threshold; read-out: COMP pKd (converted)
LIMK2 PDZ, sequence (P53671 152-239 limits assumed): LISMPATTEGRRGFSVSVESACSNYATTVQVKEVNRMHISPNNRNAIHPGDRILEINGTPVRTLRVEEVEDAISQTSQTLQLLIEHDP

GRIP2_3 PDZ = GRIP2_3 PDZ (Homo sapiens, UniProt Q9C0E4); settings: composite holdup affinity; 0.00=below quantification threshold; read-out: COMP pKd (converted)
GRIP2_3 PDZ, sequence (Q9C0E4 248-332 limits assumed): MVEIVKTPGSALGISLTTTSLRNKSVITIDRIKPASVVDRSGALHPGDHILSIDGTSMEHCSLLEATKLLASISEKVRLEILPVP

AHNAK1 PDZ = AHNAK1 PDZ (Homo sapiens, UniProt Q09666); settings: composite holdup affinity; 0.00=below quantification threshold; read-out: COMP pKd (converted)
AHNAK1 PDZ, sequence (Q09666 9-90 limits assumed): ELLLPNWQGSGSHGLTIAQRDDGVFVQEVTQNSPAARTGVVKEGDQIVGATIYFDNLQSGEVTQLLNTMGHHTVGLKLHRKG

GRIP1_1 PDZ = GRIP1_1 PDZ (Homo sapiens, UniProt Q9Y3R0); settings: sheet PPI_convert; read-out: affinity to PDZ GRIP1_1 (converted)
GRIP1_1 PDZ, sequence (Q9Y3R0 53-136 limits assumed): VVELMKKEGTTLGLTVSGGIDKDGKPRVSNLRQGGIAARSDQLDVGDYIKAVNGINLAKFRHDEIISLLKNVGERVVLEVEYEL

MAGI1_6 PDZ = MAGI1_6 PDZ (Homo sapiens, UniProt Q96QZ7); settings: sheet PPI_convert; read-out: affinity to PDZ MAGI1_6 (converted)
MAGI1_6 PDZ, sequence (Q96QZ7 1124-1206 limits assumed): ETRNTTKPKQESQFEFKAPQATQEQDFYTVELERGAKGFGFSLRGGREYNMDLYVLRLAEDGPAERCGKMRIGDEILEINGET

PDZRN4_2 PDZ = PDZRN4_2 PDZ (Homo sapiens, UniProt Q6ZMN7); settings: sheet PPI_convert; read-out: affinity to PDZ PDZRN4_2 (converted)
PDZRN4_2 PDZ, sequence (Q6ZMN7 402-486 limits assumed): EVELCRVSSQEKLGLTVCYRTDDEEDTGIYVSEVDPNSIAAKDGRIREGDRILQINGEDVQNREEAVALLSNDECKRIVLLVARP

RADIL PDZ, sequence (Q96JH8 976-1061 limits assumed): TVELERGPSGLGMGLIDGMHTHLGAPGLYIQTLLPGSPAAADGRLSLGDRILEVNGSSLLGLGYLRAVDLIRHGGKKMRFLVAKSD

Sequence	Kd (RADIL PDZ) [µM]	Kd (CNKSR1 PDZ) [µM]	Kd (DVL2 PDZ) [µM]	Kd (PDZRN3_2 PDZ) [µM]	Kd (SHANK1 PDZ) [µM]	Kd (GRASP PDZ) [µM]	Kd (Inadl_8 PDZ) [µM]	Kd (Inadl_3 PDZ) [µM]	Kd (LNX1_2 PDZ) [µM]	Kd (LIN7A PDZ) [µM]	Kd (GRIP2_5 PDZ) [µM]	Kd (GRIP2_4 PDZ) [µM]	Kd (LIMK2 PDZ) [µM]	Kd (GRIP2_3 PDZ) [µM]	Kd (AHNAK1 PDZ) [µM]	Kd (GRIP1_1 PDZ) [µM]	Kd (MAGI1_6 PDZ) [µM]	Kd (PDZRN4_2 PDZ) [µM]
RTRQRNETQV [HPV51-E6]	151	36.3	25.7	69.2														
RHTTSTETAV [HPV30-E6]					186	110	115	170	214	158	178	219	141	245	191	25.7	18.6	33.1
